{"source": "patent US6994981B2", "about": "“Modulators of paraptosis and related methods” (The Buck Institute, priority 2002, dated 2006)", "key": {"[1]": {"test_system": "striatal, cortical, and hippocampal neurons", "experiment": "SP-induced cell death in primary striatal, cortical and hippocampal neurons, trypan blue viability and staining", "assay_type": "cell-based, rat", "details": "for effect on neuronal cell death in response to SP: added 30 min before SP: 10 μM PD 98059, 50 nM Calphostin C, 10 μM Rp-8-Br-cAMPS; for effect on SP-induced neuronal cell death: 5 nM L-732,138, 1 nM L-733,060; for effect on SP-induced neuronal cell death / effect on SP-induced cell death: added at the same time as SP; for effect on SP-induced cell death: 1 μg/ml", "procedure": "Rat neuronal primary cell cultures were also used to assay for inducers and inhibitors of paraptosis. Briefly, primary striatal, cortical and hippocampal cultures were prepared from 17-day-old Sprague-Dawley rat embryos (B&K). The tissue was dissected, minced and trypsinized for five minutes using 0.25% trypsin (Cell Grow). After the addition of 10% horse serum (Life Technologies) to inhibit the trypsin, the cell suspension was triturated 15–20 times with a 10 ml syringe and centrifuged for five minutes at 800×g. The pellet was resuspended in MEM-PAK (UCSF Cell Culture facility), supplemented with 2.02 gm glucose, 2 mM GLUTAMAX™ (Life Technologies) and penicillin/streptomycin (100 U/ml). The suspension was filtered through a […] cell strainer and the final culture medium contained 5% horse serum. Subsequently, 3-4×10^5 cells per Cm^2 were seeded onto either poly-D-lysine precoated 8-well chamber slides (Becton-Dickson Labware) or 96 well plates precoated with […] of poly-D-lysine (Sigma) in water. After 30 minutes of incubation time, unattached cells were removed together with the medium and replaced with glucose enriched MEM-PAK plus 5% horse serum. The cultures were then incubated at 37° C. in 95% air 5% carbon dioxide with 95% humidity. Cultures were used for experiments between day 1 and day 7 when glial contamination was at a minimum.\nPrimary neuronal cells were prepared as described in Example I. SP (SIGMA) at a concentration of 0.1 nM–100 μM was added 24–48 hrs after seeding, in the presence of 2.5% horse serum. When the cultures were maintained for more than 5 days, 10 μM cytosine arabinoside was added for 24 hours, beginning 3 days after plating the cells. Viability was quantified by trypan blue staining of the total cell population.\nThe following compounds were added at the same time as SP in the indicated experiments: 5 nM L-732, 138; 1 nM L-733,060; 1 μg/ml Actinomycin D or 1 μg/ml Cycloheximide. All of these compounds were obtained from SIGMA. The caspase inhibitors zVAD.fmk and BAF were added at 50 μM and obtained from Enzyme System Products, Livermore, Calif.\nEither neuronal primary cultures or human embryonic kidney 293T cells were fixed with 4% paraformaldehyde and stained with 0.5 μg/ml DAPI (Molecular Probes) or Hoechst(SIGMA). […]\nThe protein kinase inhibitors were added 30 min before SP exposure at the following concentrations: 10 μM Rp-8-Br-cAMPS (adenosin 3′,5′-cyclic monophosphorothioate, 8-bromo-, Rp-isomer, sodium salt) which is a PKA inhibitor; 50 nM Calphostin C, which is a PKC inhibitor; 10 μM PD 98059 which is a MAPKK (MEK) inhibitor. These compounds were obtained from Calbiochem. Viability was quantified by trypan blue staining of the total cell population."}, "[2]": {"test_system": "IGFIR-IC transfected 293T cells", "experiment": "Inhibition of IGFIR-IC induced paraptosis in transfected 293T cells, LDH assay", "assay_type": "cell-based, human", "details": "added at the time of transfection", "procedure": "Paraptosis was induced in 293T cells by expressing the intracellular domain of the insulin-like growth factor I receptor (IGFIR-IC) in these cells using transient transfection as described above.\n(§1) Test compounds were added to IGFIR-IC transfected 293T cells at the time of transfection.\nThe TRAF2 dominant negative mutant contains a deletion of the amino terminal 271 amino acids of the protein. The ratio of IGFIR-IC:AIP1 and IGFIR-IC:TRAF2DN was 1:3. […] Antisense oligonucleotide constructs for JNK1 or JNK2 (50–100 nM) were transfected into 293T cells one day before transfection with the IGFIR-IC construct. For all inhibition assays, cell viability was measured using the LDH assay."}, "[3]": {"test_system": "paraptosis induced by caspase 7, caspase 8 or caspase 9", "experiment": "Inhibition of paraptosis induced by caspases", "assay_type": "cell-based", "procedure": "as §1"}, "293T cells": {"test_system": "293T cells", "experiment": "Induction of paraptosis in 293T cells, LDH cell death assay", "assay_type": "cell-based, human", "procedure": "Human embryonic kidney 293T cell line cells were used to assay for inducers and inhibitors of paraptosis. These cells were cultured in high glucose DMEM (Life Technologies) supplemented with 10% FBS (Sigma) and 1% penicillin/streptomycin (Life Technologies). The cultures were incubated at 37° C. in 95% air 5% carbon dioxide with 95% humidity.\nSubsequently, compounds were added to 293T cells and/or rat neuronal primary cell culture cells in order to determine if the compounds could induce paraptosis. Cell death was assayed using the lactate dehydrogenase (LDH) assay, in which the relative amount of enzyme released from dying cells in the medium is measured by following the disappearance of nicotinamide adenine dinucleotide, reduced form (NADH) in the following reaction: pyruvate+NADH <−>NAD^++ lactate. Briefly, 50 μl of culture medium for either 293T cells or 100 μl of culture medium for neuronal primary culture were dispensed in a 96 well plate to which 100 μl of a solution consisting of 5 mg of NADH dissolved in 20 ml of PBS and 0.5 ml of 100 mM NaPyruvate. NADH disappearance was assessed by kinetic photmetric readings at a 340 nm wavelength at 19 minute intervals over a period of 2 hours and 30 minutes.\nConstructs of pcDNA3 containing procaspase-7 or procaspase-8 were transiently transfected into 293T cells using Lipofect-Amine (GIBCO-BRL) according to the manufacturer's instructions. Briefly, 1×10^6 293T cells were seeded in 6 cm dishes, and transfected the next day using a ratio of DNA:Lipofect-Amine of 1 μg:5 μl. Transfection efficiency was 60–80% for 293T cells, as determined by X-gal staining after transfection of a β-galactosidase construct."}}, "note": "Counter-ions that a name gives are not always drawn. Starred links: 1 amine or outer side, 2 acyl side, 3 side chain; linkers in the order of their positions; H or OH if unused. Positions of bridges follow the written chain, without caps; N, C: chain ends. Non-standard residues stand in square brackets, D forms with d. Residues, ends and D or L forms follow the SMILES beside them. Chains are numbered I, II in the order given. No end group written: not given here. Actinocin(9to1) = Cc1c2oc3c(C)ccc(C(=O)[*:1])c3nc-2c(C(=O)[*:2])c(N)c1=O; NMeV = CN[C@H](C(=O)O)C(C)C; Sar = CNCC(=O)O"}
{"molecule": "Nc1ncnc2c1nc(Br)n2C1OC2COP(O)(=S)OC2C1O", "note": "(single isomer, unassigned) [Rp-8-Br-cAMPS, adenosin 3′,5′-cyclic monophosphorothioate, 8-bromo-, Rp-isomer, sodium salt]", "values": [{"measurement": "effect on neuronal cell death in response to SP", "setting": "[1]", "result": "no protective effect"}]}
{"molecule": "c1cnc2c(c1)ccc1cccnc12", "note": "[1–10-phenantroline]", "values": [{"measurement": "concentration able to inhibit IGFIR-IC induced paraptosis", "setting": "[2]", "result": 0.05, "unit": "µM"}, {"measurement": "inhibition of paraptosis induced by caspase 8", "setting": "[3]", "result": "able to inhibit paraptosis"}, {"measurement": "inhibition of paraptosis induced by caspase 9", "setting": "[3]", "result": "able to inhibit paraptosis"}]}
{"molecule": "O=S(=O)(NCCNC/C=C/c1ccc(Br)cc1)c1cccc2cnccc12", "note": "[H89]", "values": [{"measurement": "concentration able to inhibit IGFIR-IC induced paraptosis", "setting": "[2]", "result": "10 to 20", "unit": "µM"}]}
{"molecule": "CC(=O)N[C@@H](Cc1c[nH]c2ccccc12)C(=O)OCc1cc(C(F)(F)F)cc(C(F)(F)F)c1", "note": "[L-732,138]", "values": [{"measurement": "effect on SP-induced neuronal cell death", "setting": "[1]", "result": "inhibited SP-induced cell death"}]}
{"molecule": "FC(F)(F)c1cc(CO[C@H]2CCCN[C@H]2c2ccccc2)cc(C(F)(F)F)c1", "note": "[L-733,060]", "values": [{"measurement": "effect on SP-induced neuronal cell death", "setting": "[1]", "result": "inhibited SP-induced cell death"}]}
{"molecule": "Cc1c2oc3c(C)ccc(C(=O)N[C@@H]4C(=O)N[C@H](C(C)C)C(=O)N5CCC[C@H]5C(=O)N(C)CC(=O)N(C)[C@@H](C(C)C)C(=O)O[C@@H]4C)c3nc-2c(C(=O)N[C@@H]2C(=O)N[C@H](C(C)C)C(=O)N3CCC[C@H]3C(=O)N(C)CC(=O)N(C)[C@@H](C(C)C)C(=O)O[C@@H]2C)c(N)c1=O", "note": "[actinomycin D] (I: T[dV]P[Sar][NMeV] / II: T[dV]P[Sar][NMeV]; ester I:1-I:C, II:1-II:C; linker I:N-II:N via Actinocin(9to1))", "values": [{"measurement": "effect on SP-induced cell death", "setting": "[1]", "result": "prevented"}]}
{"molecule": "C[C@@H]1C[C@@H]([C@H](O)CC2CC(=O)NC(=O)C2)C(=O)[C@@H](C)C1", "note": "[cyclohexamide]", "values": [{"measurement": "effect on SP-induced cell death", "setting": "[1]", "result": "prevented"}]}
{"molecule": "Calphostin C", "values": [{"measurement": "effect on neuronal cell death in response to SP", "setting": "[1]", "result": "no protective effect"}]}
{"molecule": "D form of SP: D isomer of substance P ([dR][dP][dK][dP][dQ][dQ][dF][dF]G[dL][dM]; ends and bridges not checked)", "values": [{"measurement": "effect of SP isomer on neuronal cell death", "setting": "[1]; L or D isomer", "result": "no effect on cell death"}]}
{"molecule": "Tumor Necrosis Factor-α", "values": [{"measurement": "concentration at which found to induce paraptosis", "setting": "293T cells; 293T cells", "result": "1 to 10", "unit": "ng/mL"}]}
{"molecule": "neurokinin A: NK1R agonist that does not exhibit mitochondrial toxicity (HKTDSFVGLM; ends and bridges not checked; UniProt P20366 98-107, looked up)", "values": [{"measurement": "induction of cell death by NK1R agonists", "setting": "[1]; compared with SP", "result": "able to induce cell death as well as SP"}]}
{"molecule": "procaspase-7: procaspase-7 expressed in 293T cells from a pcDNA3 construct (protein, UniProt P55210 2-303, looked up, pro-form, procaspase-7 expressed in 293T cells from a pcDNA3 construct) pro-form: ADDQGCIEEQGVEDSANEDSVDAKPDRSSFVPSLFSKKKKNVTMRSIKTTRDRVPTYQYNMNFEKLGKCIIINNKNFDKVTGMGVRNGTDKDAEALFKCFRSLGFDVIVYNDCSCAKMQDLLKKASEEDHTNAACFACILLSHGEENVIYGKDGVTPIKDLTAHFRGDRCKTLLEKPKLFFIQACRGTELDDGIQADSGPINDTDANPRYKIPVEADFLFAYSTVPGYYSWRSPGRGSWFVQALCSILEEHGKDLEIMQILTRVNDRVARHFESQSDDPHFHEKKQIPCVVSMLTKELYFSQ", "values": [{"measurement": "induction of paraptosis when expressed", "setting": "293T cells; pcDNA3 construct transiently transfected into 293T cells", "result": "able to induce paraptosis"}]}
